Where a name gives a salt, the structure may show the parent alone. Read-outs that look alike come from different tables or passages of the source.
Legend:
[1] = test system: murine transplantable liver tumor (TLT); conditions: cited from earlier work
prostate cancer = assay: Randomized trial in prostate cancer patients, serum HCY and PSA; assay type: in vivo, human; design: Variation of Serum HCY (mean ± SD): unit not given here; conditions: for difference in serum levels of homocysteine and PSA versus control group: individual vitamin treatment groups (Group 2 or Group 3) vs Group 4
Experimental: Recently a prospective, randomized trial was performed with 20 prostate cancer patients who had pathologically proven prostate cancer in advanced stages (M1) with osseous metastasis and resistance to hormone therapy. The patients were randomly distributed in four groups of five patients each. […] In Group 2, ascorbic acid was omitted. In Group 3, menadione was omitted. A placebo was administered to patients of Group 4. Only two treatment courses were tested in this study so that the immediate effects of the vitamins in a clinical model could be determined and compared to the immediate induction of autoschizis elicited by the vitamin combination in preclinical models. Homocysteine (a good marker of the number of tumor cells with sensitivity for early detection of tumor cell death induced by treatments) and prostate specific antigen (PSA) assays were performed in the four groups to obtain information about the tumor cell death induced by the treatments. Serum homocysteine (HCY) and PSA were measured the first day of each week (day 1, 8, 15, 22, 29, 36, and […] of the study). […] This fall in serum HCY was highly significant (p<<0.01) in all weekly measures after the first series (day 8-42). […] The reasons for the initial increase in serum PSA levels are unknown.

CAOV-3 cell line = assay: Cytotoxicity (CD50), CAOV-3; assay type: cell-based; conditions: Homo sapiens
Excerpt: (§1) The FIC index was used to evaluate the synergism of the vitamins. A FIC<1.0 indicates the combination is synergistic, while a FIC>1.0 indicates the combination is antagonistic. A FIC=1.0 indicates the combination is indifferent. […] During this time, two requests for humanitarian intervention were made.

TCCSUP = assay: Antitumor activity by MTT assay, TCCSUP; conditions: Homo sapiens, TCC-SUP
Excerpt: as §1

RT4 = assay: Antitumor activity by MTT assay, RT4; conditions: Homo sapiens
Excerpt: as §1

ES-2 cell line = assay: Cytotoxicity (CD50), ES-2; assay type: cell-based; conditions: Homo sapiens
Excerpt: as §1

SCaBER = assay: Antitumor activity by MTT assay, SCaBER; conditions: Homo sapiens
Excerpt: as §1

CWR22 = assay: Antitumor activity by MTT assay, CWR22; conditions: Homo sapiens
Excerpt: as §1

J82 = assay: Antitumor activity by MTT assay, J82; conditions: Homo sapiens
Excerpt: as §1

advanced cancer = conditions: 10 grams given orally; cited from earlier work
DU145 = assay: Antitumor activity by MTT assay, DU145; conditions: Homo sapiens
Excerpt: as §1

Caki-1 = assay: Antitumor activity by MTT assay, Caki-1; conditions: Homo sapiens
Excerpt: as §1

MDA-MB-231 = assay: Antitumor activity by MTT assay, MDA-MB-231; conditions: Homo sapiens
Excerpt: as §1

terminal cancer = conditions: cited from earlier work
MDAH 2774 cells = assay: Antitumor activity by MTT assay, MDAH 2774
Excerpt: as §1

Tera-2 = assay: Antitumor activity by MTT assay, Tera-2; conditions: Homo sapiens
Excerpt: as §1

[2] = 10 to 100 g twice per week; cited from earlier work
PC3 = assay: Antitumor activity by MTT assay, PC3; conditions: Homo sapiens
Excerpt: as §1

SKOV3 = assay: Antitumor activity by MTT assay, SKOV3; conditions: Homo sapiens
Excerpt: as §1

T24 = assay: Antitumor activity by MTT assay, T24; conditions: Homo sapiens
Excerpt: as §1

tumor growth = conditions: cited from earlier work
gastrointestinal cancer = conditions: VK3 with mitomycin C; 43 patients; cited from earlier work
advanced lung cancer = conditions: cited from earlier work
hepatoma = conditions: weekly i.p. 10 mg/2 mL for 4 weeks, cited from earlier work
[3] = mouse, in vivo
[4] = bisulfite form; cited from earlier work
[5] = mice; cited from earlier work
[6] = cited from earlier work
[7] = 400-500 mg/day over 3-5 consecutive days; cited from earlier work
[8] = assay day 8, oral 7 day courses from day 1 and day 22, VC 5 g/m^2/day, VK3 50 mg/m^2/day, pretreatment = 0
[9] = read-out: Vitamins Alone, Vit C 50% Cytotoxic Dose
[10] = read-out: Vitamins Alone, Vit K3 50% Cytotoxic Dose

CC[C@]1(O)C[C@H]2CN(CCc3c([nH]c4ccccc34)[C@@](C(=O)OC)(c3cc4c(cc3OC)N(C=O)[C@H]3[C@@](O)(C(=O)OC)[C@H](OC(C)=O)[C@]5(CC)C=CCN6CC[C@]43[C@@H]65)C2)C1 [Oncovin, vincristine sulfate]
MST ([1]; second study, each agent alone, Oncovin 0.3 mg/kg): 19.0 days

O=C1O[C@H]([C@@H](O)CO)C([O-])=C1O.[Na+] [Vitamin C, Sodium Ascorbate]
Variation of Serum HCY (mean ± SD) (prostate cancer; [8]): 0.59 ± 0.508 | Variation of Serum HCY (mean ± SD) (prostate cancer; assay day 15): 0.74 ± 0.349 | Variation of Serum HCY (mean ± SD) (prostate cancer; assay day 22): 1.24 ± 0.448 | Variation of Serum HCY (mean ± SD) (prostate cancer; assay day 29): 1.45 ± 0.498 | Variation of Serum HCY (mean ± SD) (prostate cancer; assay day 36): 1.32 ± 0.448 | Variation of Serum HCY (mean ± SD) (prostate cancer; assay day 42): 1.34 ± 0.486 | difference in serum levels of homocysteine and PSA versus control group (prostate cancer): non-significant difference | IC50 (CAOV-3 cell line; Caov-3, read-out: CD50, vitamin C alone): 1360 µM | IC50 (TCCSUP; [9]): 297 ± 7 µM | IC50 (RT4; RT-4, read-out: Vitamins Alone, Vit C 50% Cytotoxic Dose): 2430 ± 28 µM | IC50 (ES-2 cell line; read-out: CD50, VC alone): 197 µM | IC50 (SCaBER; [9]): 327 ± 6 µM | IC50 (CWR22; CWR22, read-out: Vitamins Alone, Vit C 50% Cytotoxic Dose): 254 ± 1.02 µM | IC50 (J82; J82, read-out: Vitamins Alone, Vit C 50% Cytotoxic Dose): 376 ± 1 µM | effectiveness of oral Vitamin C (advanced cancer): no benefits | IC50 (DU145; DU-145, read-out: Vitamins Alone, Vit C 50% Cytotoxic Dose): 2460 ± 28 µM | IC50 (Caki-1; CAKI-1, read-out: Vitamins Alone, Vit C 50% Cytotoxic Dose): 376 ± 1 µM | IC50 (MDA-MB-231; MDA-MB-231, read-out: Vitamins Alone, Vit C 50% Cytotoxic Dose): 466 ± 3.23 µM | mean survival time (terminal cancer; 100 terminal cancer patients, 10 g/day i.v. for 10 days then 10 g/day orally, controls 50 days): more than 210 days | mean survival time (terminal cancer; six ovarian cancer patients, controls 71 days): 148 days | IC50 (MDAH 2774 cells; Homo sapiens, MDAH 2774, read-out: Vitamins Alone, Vit C 50% Cytotoxic Dose, MDAH, Ovarian): 1530 µM | IC50 (MDAH 2774 cells; read-out: Vitamins Alone, Vit C 50% Cytotoxic Dose, MDAH, Ovarian): 1520 ± 29 µM | IC50 (Tera-2; [9]): 1312 ± 10 µM | remissions with high doses of i.v. VC [2]: a small number of complete remissions | IC50 (PC3; PC-3, read-out: Vitamins Alone, Vit C 50% Cytotoxic Dose): 2360 ± 39 µM | IC50 (SKOV3; SK-OV-3, read-out: Vitamins Alone, Vit C 50% Cytotoxic Dose): 755 ± 24.1 µM | increased lifespan ([1]; VC alone 1 g/Kg body weight): 14.7% | IC50 (T24; T-24, read-out: Vitamins Alone, Vit C 50% Cytotoxic Dose): 1490 ± 141 µM

CC1=CC(=O)c2ccccc2C1=O [Vitamin K3, 2-Methyl-1,4-Naphthoquinone]
inhibition of tumor growth (tumor growth; VK3 225 mg/kg/day with methotrexate): 84% | inhibition of tumor growth (tumor growth; menadione 250 mg/kg/day with methotrexate 0.75 mg/kg/day): 99% | circulating levels of VK3 that induce synergism with methotrexate (tumor growth; rat, in vivo): ≥ 1 µM | response to therapy (gastrointestinal cancer): no objective response | Variation of Serum HCY (mean ± SD) (prostate cancer; [8]): 0.468 ± 0.362 | Variation of Serum HCY (mean ± SD) (prostate cancer; assay day 15): 0.59 ± 0.227 | Variation of Serum HCY (mean ± SD) (prostate cancer; assay day 22): 0.68 ± 0.210 | Variation of Serum HCY (mean ± SD) (prostate cancer; assay day 29): 0.76 ± 0.341 | Variation of Serum HCY (mean ± SD) (prostate cancer; assay day 36): 1.12 ± 0.400 | Variation of Serum HCY (mean ± SD) (prostate cancer; assay day 42): 1.3 ± 0.432 | difference in serum levels of homocysteine and PSA versus control group (prostate cancer): non-significant difference | IC50 (CAOV-3 cell line; Caov-3, read-out: CD50, VK3 alone): 22 µM | IC50 (TCCSUP; [10]): 6.3 ± 0.06 µM | IC50 (RT4; RT-4, read-out: Vitamins Alone, Vit K3 50% Cytotoxic Dose): 12.8 ± 0.03 µM | IC50 (ES-2 cell line; read-out: CD50, VK alone): 25 µM | IC50 (SCaBER; [10]): 9.7 ± 0.15 µM | IC50 (CWR22; CWR22, read-out: Vitamins Alone, Vit K3 50% Cytotoxic Dose): 4.1 ± 0.33 µM | IC50 (J82; J82, read-out: Vitamins Alone, Vit K3 50% Cytotoxic Dose): 8.2 ± 0.15 µM | IC50 (DU145; DU-145, read-out: Vitamins Alone, Vit K3 50% Cytotoxic Dose): 12.9 ± 0.81 µM | IC50 (Caki-1; CAKI-1, read-out: Vitamins Alone, Vit K3 50% Cytotoxic Dose): 19.3 ± 0.33 µM | IC50 (MDA-MB-231; MDA-MB-231, read-out: Vitamins Alone, Vit K3 50% Cytotoxic Dose): 7.1 ± 0.21 µM | median survival (advanced lung cancer; VK3 in combination with mitomycin C, 23 patients): 5.5 months | patients exhibiting hematologic toxicity (advanced lung cancer; VK3 with mitomycin C): 30% | patients exhibiting some tumor regression (advanced lung cancer; VK3 with mitomycin C): 26% | IC50 (MDAH 2774 cells; Homo sapiens, MDAH 2774, read-out: Vitamins Alone, Vit K3 50% Cytotoxic Dose, MDAH, Ovarian): 41.8 µM | IC50 (Tera-2; [10]): 21.8 ± 0.73 µM | long term survivors (hepatoma): 5 out of 16 | survival (hepatoma; control rats 17 days): 60 days | toxicity to livers [3]: no toxicity | IC50 (PC3; PC-3, read-out: Vitamins Alone, Vit K3 50% Cytotoxic Dose): 11.4 ± 0.13 µM | solubility [4]: water soluble | IC50 (SKOV3; SK-OV-3, read-out: Vitamins Alone, Vit K3 50% Cytotoxic Dose): 22 ± 1.93 µM | increased lifespan ([1]; VK3 alone 0.01 g/Kg body weight): 1.07% | LD50 [5]: 500 mg/kg | IC50 (T24; T-24, read-out: Vitamins Alone, Vit K3 50% Cytotoxic Dose): 13.1 ± 0.01 µM | maximum tolerated dose of VK3 ([6]; 48-hour intravenous infusion, followed by mitomycin C 15 mg/m2 every four weeks): 2.5 g/m^2 | tolerability ([6]; i.v., in conjunction with mitomycin C, Phase I and Phase II trials): well tolerated | hemolysis at maximum tolerated dose ([6]; with mitomycin C every four weeks): no hemolysis | toxicity in phase I clinical trials [7]: without any appreciable toxicity

O=P1(N(CCCl)CCCl)NCCCO1 (stereo not shown) [cyclophosphamide]
ILS ([1]; single dose of cyclophosphamide 80 mg/kg body weight): 23% | MST ([1]; single dose of cyclophosphamide 80 mg/kg body weight, untreated 16.8 days): 20.6 days
